Test results as given in PubChem BioAssay (NCI).
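1) Cells in 96-well plates. 2) Compound, 48 h, 5 concentrations. 3) Linear interpolation between surrounding doses. 4) Unreached endpoint = highest concentration. GI50 = concentration required for 50% inhibition of growth. TGI denotes the concentration required for complete inhibition of growth.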

What was measured:
Assay in all cases: NCI tumour cell line growth inhibition, 48 h
[1] = system: MDA-MB-468 breast
[2] = system: OVCAR-4 ovarian
[3] = system: CAKI-1 renal
[4] = system: SR leukemia
[5] = system: NCI/ADR-RES ovarian
[6] = system: SW-620 colon
[7] = system: OVCAR-3 ovarian
[8] = system: DU-145 prostate
[9] = system: MOLT-4 leukemia
[10] = system: 786-0 renal
[11] = system: MDA-MB-435
[12] = system: SNB-19 CNS
[13] = system: TK-10 renal
[14] = system: M14 melanoma
[15] = system: NCI-H522 lung
[16] = system: MCF7 breast
[17] = system: COLO 205 colon
[18] = system: HT29 colon
[19] = system: HCT-15 colon
[20] = system: NCI-H23 lung
[21] = system: CCRF-CEM leukemia
[22] = system: PC-3 prostate
[23] = system: HOP-62 NSCLC
[24] = system: UACC-62 melanoma
[25] = system: HL-60(TB) leukemia
[26] = system: OVCAR-5 ovarian
[27] = system: HCC-2998 colon
[28] = system: LOX IMVI melanoma
[29] = system: UO-31 renal
[30] = system: SK-MEL-2 melanoma
[31] = system: SK-MEL-28 melanoma
[32] = system: T-47D breast
[33] = system: EKVX NSCLC
[34] = system: SN12C renal
[35] = system: NCI-H460 lung
[36] = system: HOP-92 NSCLC
[37] = system: NCI-H226 lung
[38] = system: U251 CNS
[39] = system: HCT-116 colon
[40] = system: HS 578T breast
[41] = system: ACHN renal
[42] = system: UACC-257 melanoma
[43] = system: KM12 colon
[44] = system: A549 NSCLC
[45] = system: A498 renal
[46] = system: SK-MEL-5 melanoma
[47] = system: RXF 393 renal
[48] = system: SK-OV-3 ovarian
[49] = system: MALME-3M melanoma
[50] = system: SF-268 CNS
[51] = system: IGROV1 ovarian
[52] = system: SNB-75 CNS
[53] = system: OVCAR-8 ovarian

CC(=Nc1ccccc1)C1=C(O)C(Cc2ccc(F)cc2)NC1=O (stereo not drawn)
GI50 [1]: 0.382 µM | TGI [1]: 5.22 µM

N#Cc1ccc(NC(=O)Nc2nc3ccc(OC(F)(F)F)cc3s2)cc1
GI50 [1]: 0.46 µM | TGI [1]: 4.84 µM

C[C@@]1(O)CCC[C@H]1n1c(=O)c(C(F)F)cc2cnc(NC3CCN(S(C)(=O)=O)CC3)nc21
GI50 [1]: 1.61 µM | TGI [1]: 4.76 µM

Clc1ccc(COC(Cn2ccnc2)c2ccc(Cl)cc2Cl)c(Cl)c1 (stereo not drawn)
GI50 [1]: 1.84 µM | TGI [1]: 5.13 µM

CCCc1n(Cc2ccc3ccccc3n2)cc[n+]1Cc1ccc2ccccc2c1
GI50 [1]: 0.273 µM | TGI [1]: 1.49 µM

C=C1C(=O)O[C@H]2[C@H]1CC/C(Cn1cc(-c3ccsc3)nn1)=C\CC[C@@]1(C)O[C@@H]21
GI50 [1]: 1.28 µM | TGI [1]: 3.56 µM

O=C(OCCOCCO)N(c1cccc(Br)c1)c1nc(SCCN2CCOCC2)nc2c1cnn2CC(Cl)c1ccc(Br)cc1 (stereo not drawn)
GI50 [2]: 3.05 µM | TGI [2]: > 100 µM | GI50 [3]: 4.38 µM | TGI [3]: > 100 µM | GI50 [4]: 2 µM | TGI [4]: > 100 µM | GI50 [5]: 3.52 µM | TGI [5]: > 100 µM | GI50 [6]: 3.71 µM | TGI [6]: > 100 µM | GI50 [7]: 5.54 µM | TGI [7]: > 100 µM | GI50 [8]: 9.88 µM | TGI [8]: > 100 µM | GI50 [9]: 2.31 µM | TGI [9]: 6.51 µM | GI50 [10]: 2.51 µM | TGI [10]: > 100 µM | GI50 [11]: 3.83 µM | TGI [11]: > 100 µM | GI50 [12]: 9.17 µM | TGI [12]: 24.8 µM | GI50 [13]: 93.4 µM | TGI [13]: > 100 µM | GI50 [14]: 3.67 µM | TGI [14]: > 100 µM | GI50 [15]: 3.15 µM | TGI [15]: 13.1 µM | GI50 [16]: 3.15 µM | TGI [16]: > 100 µM | GI50 [1]: 2.47 µM | TGI [1]: 7.63 µM | GI50 [17]: 1.99 µM | TGI [17]: 4.43 µM | GI50 [18]: 2.73 µM | TGI [18]: > 100 µM | GI50 [19]: 2.84 µM | TGI [19]: 10.1 µM | GI50 [20]: 3.27 µM | TGI [20]: 15 µM | GI50 [21]: 2.89 µM | TGI [21]: 12.1 µM | GI50 [22]: 3.28 µM | TGI [22]: > 100 µM | GI50 [23]: 4.41 µM | TGI [23]: > 100 µM | GI50 [24]: 3.33 µM | TGI [24]: 12.4 µM | GI50 [25]: 2.36 µM | TGI [25]: 6.25 µM | GI50 [26]: 5.15 µM | TGI [26]: > 100 µM | GI50 [27]: 3.84 µM | TGI [27]: > 100 µM | GI50 [28]: 1.72 µM | TGI [28]: 3.21 µM | GI50 [29]: 4.57 µM | TGI [29]: > 100 µM | GI50 [30]: 6.68 µM | TGI [30]: 22.1 µM | GI50 [31]: 3.35 µM | TGI [31]: 18 µM | GI50 [32]: 5 µM | TGI [32]: > 100 µM | GI50 [33]: 5.55 µM | TGI [33]: > 100 µM | GI50 [34]: 4.91 µM | TGI [34]: > 100 µM | GI50 [35]: 3.77 µM | TGI [35]: > 100 µM | GI50 [36]: 7.62 µM | TGI [36]: > 100 µM | GI50 [37]: 5.63 µM | TGI [37]: > 100 µM | GI50 [38]: 6.39 µM | TGI [38]: > 100 µM | GI50 [39]: 2.62 µM | TGI [39]: > 100 µM | GI50 [40]: 3.59 µM | TGI [40]: > 100 µM | GI50 [41]: 3.9 µM | TGI [41]: > 100 µM | GI50 [42]: 10.5 µM | TGI [42]: > 100 µM | GI50 [43]: 3.88 µM | TGI [43]: > 100 µM | GI50 [44]: 5.04 µM | TGI [44]: > 100 µM | GI50 [45]: > 100 µM | TGI [45]: > 100 µM | GI50 [46]: 10.1 µM | TGI [46]: 70.7 µM | GI50 [47]: 1.78 µM | TGI [47]: 5.05 µM | GI50 [48]: 5.21 µM | TGI [48]: > 100 µM | GI50 [49]: 3.17 µM | TGI [49]: 17.8 µM | GI50 [50]: 4.82 µM | TGI [50]: > 100 µM | GI50 [51]: 8.25 µM | TGI [51]: > 100 µM | GI50 [52]: 3.34 µM | TGI [52]: > 100 µM | GI50 [53]: 6.93 µM | TGI [53]: > 100 µM
